Values joined by “and” are separate entries in the source; they are usually repeats but may differ in a detail not shown here. Equal values may be shown once.
Assays:
[1] = i.v. in mice; cited from earlier work
[2] = tested on: rat hippocampal neurons; assay: Process and axon formation during long term incubation with low drug concentrations; type: cell-based; conditions: for number of processes per cell: read at 3 DIV; for total neurite length: 3 DIV; for number of processes which exceeded 60 μm: 2 further DIV
Method: (§1) Primary hippocampal neurons derived from rat embryos were cultured following the protocol of Goslin and Banker (1991) and de Hoop et al. (1997). In brief, the hippocampi of E18 rats were dissected, trypsinized, and physically dissociated. The cells were then washed in HBSS, and 1.0-1.3×10^5 cells were plated onto poly-lysine-treated glass coverslips in 6 cm petri dishes containing minimal essential medium (MEM) and 10% heat-inactivated horse serum. The cells were kept in 5% CO2 at 36.5° C. After 12-18 hr, the coverslips were transferred to a 6 cm dish containing astrocytes in MEM and N2 supplements.
For long term incubation, 0.1 to 30 nM Taxol (Sigma), 0.1 to 1 μM cytochalasin D (Sigma) or 3 nM to 10 μM Nocodazole (Sigma) were added to culture medium after 1 day in culture, and cells were further incubated at 36.5° C. Drugs were kept as stock solutions in DMSO at −20° C. (Taxol: 5 mM; Cytochalasin D: 10 mM; Nocodazole: 6.67 mM).
To detect proteins by immunohistochemistry, cells were fixed in 4% para-formaldehyde for 15 min at 37° C. (20 min for Tau-1 stainings), aldehyde groups were quenched in 50 mM ammonium chloride for 10 min, and the cells were then extracted with 0.1% Triton X-100 for 3 min.
Length and intensity measurements were done using Scion Image Beta 4.0.2 for MS Windows (based on NIH-image). For length measurements, cVisTec Professional 1.0 (cVisTec, Munich, Germany) was additionally used.
So far we had shown that axonal microtubules have a higher ability to resist depolymerization under harsh microtubule-destabilizing conditions. If there was a putative stability difference in axons and minor neurites, we hypothesized that particular growth conditions should allow formation of axons but not minor neurites. To assess the effect of modest microtubule destabilization on process formation, we treated hippocampal neurons after 1 DIV with low concentrations of Nocodazole. After 2 further DIV under such growth conditions cells were fixed [with 4% PFA/Sucrose] and stained for the axonal marker Tau-1. Using fluorescence microscopy, we evaluated effects on the formation of axons and minor neurites.
To test the influence of microtubule stabilization on axon formation we treated hippocampal neurons after 1 DIV with low concentrations of the microtubule-stabilizing drug Taxol (FIGS. 4A and H). […] Taxol (also known as Paclitaxel) is successfully used as an anti-cancer drug so far as it arrests dividing cells in the G2-M-phase of cell division. Neurons grown in the presence of low concentrations of Taxol were fixed [with 4% PFA/sucrose] after 3 to 7 DIV and stained for the axonal marker Tau-1 or the dendritic marker MAP2. Under control conditions, neurons had formed one axon and several minor neurites (FIGS. 4D and E). […] The number of processes which exceeded 60 μm had increased more than 2-fold by Taxol treatment (DMSO 1.53±0.05, 3 nM Taxol 2.93±0.46, 10 nM Taxol 3.58±0.54) (FIG. 4F). Similarly, the number of cells with more than one Tau-1-positive process went up about 4-fold in a concentration-dependent manner in Taxol-treated neurons (from 20.19±3.19% in DMSO-treated neurons to 80.81±1.71% neurons treated with 10 nM Taxol) (FIG. 4G).

[3] = tested on: growth cones of lesioned sciatic nerve axons; assay: Nocodazole application onto lesioned sciatic nerve (growth cone to bulb conversion); type: in vivo, GFP-M mice
Method: The mice were anesthetized as described. The sciatic nerve was exposed at around 2.5 cm from the DRG cell bodies by a small incision and crushed with forceps for ten seconds. The incision was sutured and the skin stapled. The anesthesia was reversed and the animals were transferred to a heating pad for the following 24 hours.
Sciatic nerve lesion was performed as described. After 24 hours animals were re-anesthetized and 10 μl of 330 μM of nocodazole (Sigma-Aldrich, diluted in 5% DMSO in PBS) or 5% DMSO alone was applied onto lesion site with a pipette. The injury site was closed and animals were perfused 24 hours after nocodazole or DMSO application for staining and imaging.
(§2) The size of retraction bulbs and growth cones was quantified as follows: the maximum diameter of the retraction bulb and growth cone at the tip of the axon was measured and divided by the axon diameter of the same end structure where the axon looked normal.

[4] = tested on: rat hippocampal neurons; assay: Microtubule stability assay: Nocodazole-induced microtubule retraction in hippocampal neurons; type: cell-based; conditions: for cells in which microtubule retraction was significantly higher in minor neurites compared to axons: stage 3 neurons, 5 min
Method: as §1
Analyzing short term microtubule depolymerization, the fate of individual neurons was followed. Cells localized on the grid of a Cellocate coverslip were photographed. The coverslip was then transferred into HEPES-buffered HBSS containing Nocodazole and incubated for 5 min at 36.5° C. in the incubator. [As Nocodazole is insoluble in aqueous solutions, special care was taken to ensure equal distribution of Nocodazole in HBSS.] After short term incubation, neurons were PHEM-fixed to eliminate depolymerized tubulin subunits and allow clear visualization of microtubules.
To visualize microtubules clearly, an alternative fixation method (PHEM-fixation) was used if required. To get rid of unpolymerized tubulin subunits, cells were simultaneously fixed and permeabilized for 15 min at 37° C. in PHEM buffer (60 mM PIPES and 25 mM HEPES) containing 3.7% paraformaldehyde, 0.25% glutaraldehyde, 5 mM EGTA, 1 mM MgCl, 3.7% sucrose, and 0.1% Triton X-100 (adapted from Smith, 1994) and quenched as above.
To determine the ratio of acetylated to tyrosinated α-Tubulin, the fluorescence signals of different channels of pictures taken with 63× magnification were compared. In the medial part of each process, the average fluorescence intensity of both acetylated and tyrosinated α-Tubulin was measured in a square of 5×5 pixel and the ratio of the values was determined. For minor neurites of the same cell, the average of the ratios was calculated in polarized neurons and used for comparison to the ratio of the corresponding axon. For unpolarized neurons, the highest ratio was compared to the average of the ratios of the remaining neurites. To measure microtubule retraction after Nocodazole treatment, fixed and stained neurons were relocated on the Cellocate coverslips. Pictures were taken of both the actin cytoskeleton (visualized by staining with Rhodamine-coupled Phalloidin) and the microtubules (stained with an antibody recognizing α-Tubulin). The actin cytoskeleton outlining the neuron was used as a reference point to measure retraction of microtubules from the distal part of the processes towards the cell body.
To test the resistance of microtubules to depolymerization, we applied the drug Nocodazole to stage 3 neurons, followed by fixation [in 3.7% PFA/Sucrose, 0.25% Glutaraldehyde, 1×PHEM-buffer and 0.1% Triton X-100] after a brief incubation (FIG. 2 A). Nocodazole is known to disrupt microtubules by binding to β-Tubulin and […], thus inhibiting microtubule dynamics. After fixation, neurons were doublestained for F-Actin and α-Tubulin or acetylated and tyrosinated α-Tubulin. Fluorescence microscopy and CCD imaging was used to quantify retraction of microtubules from the distal end of processes or distribution of posttranslational modifications of α-Tubulin after partial depolymerization of the microtubule cytoskeleton.

[5] = tested on: neurons; conditions: CNS; cited from earlier work
[6] = tested on: astrocytes; assay: Astrocyte numbers in taxol treated cultures; type: cell-based
[7] = tested on: lesioned dorsal column (CNS) axons; assay: Taxol application 24 hours after dorsal column lesion: regenerating sprouts; type: in vivo, mice
Text: (§3) We used an Olympus SZX-12 fluorescent stereomicroscope equipped with 1× Plan Apochromat objective and 1.6× Plan Fluorite objective (Olympus). The ColorView II camera integrated to the microscope was used to capture images through Analysis FIVE software (Soft Imaging System). Animals were anesthetized as described. After removing the laminae at T11/12 level, a small unilateral lesion was applied with the vannas spring scissors (FST) by transecting only the superficial axons of the dorsal columns. We imaged the injury site before and after lesion by acquiring serial images. The animals were kept on a heating pad during the imaging session.
(§4) A small unilateral spinal cord lesion at T12 level was performed as described. 10 μl of 1 μM or 5 μM taxol (Sigma-Aldrich, diluted in Saline) or saline as control was applied onto the lesion site each hour starting immediately after or 24 hours after lesioning. The lesion sites were visualized by in vivo imaging as described. The animals' anesthesia was boosted after 3 hours. At the end of the observation period animals were perfused and prepared for the confocal imaging as described.
The length of the sprouts quantified on confocal images. The length of all sprouts including sprouts emerging from sprouts measured and summed up for final value. As number of sprouts, only primary sprouts emerging from directly axonal shaft were quantified.

[8] = tested on: lesioned dorsal column (CNS) axons; assay: Taxol application immediately after dorsal column lesion: retraction bulb formation, in vivo imaging; design: species or system GFP-M mice
Text: as §3, §4, §2
The distance of taxol and saline treated axons to the lesion site was quantified as follows: The lesion site was outlined from the in vivo binocular images. We then measured the distance of the axonal tips to the proximal edge of the lesion.

[9] = 5 μM Nocodazole, brief incubation
[10] = stage 2 neurons (1 DIV), 3.3 μM Nocodazole

## CCC(=O)O[C@H]1C[C@H]2OC[C@@]2(OC(C)=O)[C@H]2[C@H](OC(=O)c3ccccc3)[C@]3(O)C[C@H](OC(=O)[C@H](O)[C@@H](NC(=O)OC(C)(C)C)c4ccco4)C(C)=C([C@@H](O)C(=O)[C@]12C)C3(C)C [MAC-321, 5beta, 20-epoxy-1, 2alpha-, 4-, 7beta-, 10beta-, 13alpha-hexahydroxytax-11-en-9-one 4 acetate 2 benzoate 7-propionate 13-ester with (2R,3S)—N-tertbutoxycarbonyl-3-(2-furyl)isoserine]
[1]
  Lethal dose: 140 mg/kg

## COC(=O)Nc1nc2ccc(C(=O)c3cccs3)cc2[nH]1 [Nocodazole]
[2]; 15 nM Nocodazole from 1 DIV
  number of processes per cell: 3.58±0.08
[2]; 45 nM Nocodazole
  increase of total neurite length from day 1 to day 3 in vitro: more than 3 fold
  total neurite length: 197.31 μm
[2]; 45 nM Nocodazole from 1 DIV
  number of processes per cell: 2.64±0.08
[2]; 75 nM Nocodazole
  increase of total neurite length from day 1 to day 3 in vitro: > 2 fold
  total neurite length: 134.89 μm
[2]; 75 nM Nocodazole from 1 DIV
  number of processes per cell: 2.20±0.18
[3]; 10 μl of 330 μM nocodazole 24 h after sciatic nerve crush, evaluated 24 h after treatment
  axons that transformed their growth cones into a bulb: 42.3%±13.2% and 45%±13%
[3]; 10 μl of 330 μM nocodazole, 24 h after treatment
  tip/axon shaft ratio of nocodazole induced retraction bulbs: 4.25±0.56
[4]; [9]
  microtubule retraction of minor neurites: 12.47±2.221 μm
  retraction of axonal microtubules: 8.89 μm
[4]; [10]
  average microtubule retraction of the remaining minor neurites: 13.71±2.84 μm
  microtubule retraction in the minor neurite with the lowest retraction: 4.50±1.27 μm
[4]; 3.3 μM Nocodazole
  cells in which microtubule retraction was significantly higher in minor neurites compared to axons: 59.3±6.9%
[4]; 5 μM Nocodazole
  cells in which microtubule retraction was significantly higher in minor neurites compared to axons: 60%±5.1%

## CC(=O)O[C@H]1C(=O)[C@@]2(C)[C@H]([C@H](OC(=O)c3ccccc3)[C@]3(O)C[C@H](OC(=O)[C@H](O)[C@@H](NC(=O)c4ccccc4)c4ccccc4)C(C)=C1C3(C)C)[C@]1(OC(C)=O)CO[C@@H]1C[C@@H]2O [Taxol, Tax-11-en-9-one, 5beta,20-epoxy-1,2alpha,4,7beta, 10beta,13alpha-hexahydroxy-, 4,10-diacetate 2-benzoate, 13-ester with (2R,3S)—N-benzoyl-3-phenylisoserine (8Cl)]
[2]; 3 nM Taxol from 1 DIV
  number of processes which exceeded 60 μm: 2.93±0.46
[2]; 10 nM Taxol
  cells with more than one Tau-1-positive process: 80.81±1.71%
[2]; 10 nM Taxol from 1 DIV
  number of processes which exceeded 60 μm: 3.58±0.54
[2]; 10 nM Taxol versus DMSO
  increase of the number of cells with more than one Tau-1-positive process: about 4 fold
[2]; Taxol treatment versus DMSO
  increase of the number of processes which exceeded 60 μm: more than 2 fold
[5]
  neuronal death: induces dose-dependent neuronal death
[6]
  astrocyte numbers: drastic reduction in astrocyte numbers
[4]; 10 nM Taxol for 24 h, then 5 μM Nocodazole briefly
  microtubule retraction in Taxol-induced axon-like processes: 7.48±1.761 μm
[7]; 5 μM taxol, 48 h post injury
  animals in which the extended retraction bulb with filopodia like extensions was observed: 4 out of 12
  sprout terminals with extended retraction bulb with several filopodia like extensions: 8.9%±5.0%
  sprout terminals with slim growth cone morphology: 57%±20%
  sprout terminals with small retraction bulb morphology: 41.8%±16.6%
[7]; 10 μl of 5 μM taxol once each hour, 4-5 times, from 24 h post injury, read 48 h post injury
  total number of the sprouts from one axon: 7.83±1.79
[8]; 1 μM taxol, 5 biggest retraction bulbs per animal, 6 hours
  tip/axon ratio of retraction bulbs formed during treatment: 2.53±0.54
[8]; 1 μM taxol, 6 hours after injury
  animals with proximal axonal stumps as close as 25 μm to the injury site: 6 out of 11
[8]; 10 μl of 1 μM taxol once per hour from immediately after injury, first 6 hours
  axons that developed retraction bulbs (tip/axon ratio >2): 22.8%±13.1%

Reference: patent publication US20080279923A1, “Use of Microtubule Stabilizing Compounds for the Treatment of Lesions of Cns Axons” (Max-Planck-Gesellschaft zur Forderung de Wissensch, priority 2005, published 2008)
